Assay results from publication PMC10268594 (2023).
Each block holds one molecule with its values, some of them ahead of it.

Assays:
Test in all cases: single-molecule MspA-M2 nanopore kinetics
[1] = system: Serotonin-binding aptamer (DNA, aptamer) CGACTGGTAGGCAGATAGGGGAAGCTGATTCGATGCGTGGGTCG; settings: 1 M KCl; +120 mV, aptamer cis, serotonin trans
[2] = system: Dopamine-binding aptamer (DNA, aptamer) CGACGCCAGTTTGAAGGTTCGTTCGCAGGTGTGGAGTGACGTCG; settings: 1 M KCl; 10 mM Tris pH 7.4, +180 mV, aptamer cis, 25 µM dopamine trans
[3] = system: Theophylline-binding aptamer (RNA, aptamer) AGUGAUACCAGCAUCGUCUUGAUGCCCUUGGCAGCACU; settings: 1 M KCl; +180 mV, aptamer cis, 25 µM theophylline trans

Kd [1]: 9.0 ± 1.3 µM
Compound: NCCc1c[nH]c2ccc(O)cc12

Kd [2]: 27 ± 3 µM
Compound: NCCc1ccc(O)c(O)c1

Kd [3]: 72 ± 17 µM
Compound: Cn1c(=O)c2[nH]cnc2n(C)c1=O
